Assay results reported in patent US7189746B2, “Methods for promoting wound healing” (GliaMed, Inc., priority 2002, dated 2007).
“Also recorded” adds a separate entry of the source.

Legend:
facial nerve = assay: Whisker movement after unilateral facial nerve compression; assay type: in vivo; conditions: rats, versus control
[1] = tested on: hair follicles and sebaceous glands; assay: Histology of adenexal structures and sebaceous cell volume after skin biopsy and topical treatment; assay type: in vivo, mice; conditions: topical daily, 8 days
Procedure: (A) Eight days following full-thickness skin biopsies and daily treatment with either vehicle or a 1 μM solution of GM-284, the original biopsy sites were rebiopsied and stained with hemotoxylin and eosin. […] Micrographs from the two treatment groups were scanned, and the volume of sebaceous cells was measured in voxels (n=>300 cells per treatment group). The resulting data were binned by 3000-voxel increments.
Using the topical-application-following-skin-biopsy paradigm detailed above, the lateral aspects of the original lesions were rebiopsied 8 days after the original lesions. The tissues were immersion-fixed, dehydrated through step gradients of alcohols, stained with hemotoxylin and eosin, and mounted for microscopic analysis, all following standard protocols. It is known that skin wounds in rodents heal inwards, from the perimeter, converging at a central point (Cohen, Stress and wound healing. Acta Anat. (Basel), 103:134–41, 1979). Therefore, the lateral edges of the original lesions were selected for analysis because these areas of tissue had the greatest opportunity to regenerate under the experimental conditions.
The volumes of the cells of the sebaceous glands were determined by scanning micrographs taken from animals treated with either GM-284 or vehicle for 8 days, and measuring cell size with the NIH Image program. […] There was an absence of smaller sebaceous cells in the GM-284 treatment group, and an absence of larger cells in the vehicle-treated group. […] Thus, given the cellular expansion in all three of these dermal compartments, it is likely that GM-284 acts at the level of the common stem cell.

[2] = tested on: nerve fibers of injured skin; assay: Reinnervation and remyelination of healing skin (MBP and neuron-specific β-tubulin staining); assay type: in vivo, mouse; conditions: 8 days of treatment after biopsy
From the text: FIG. 6 illustrates that GM-284 induces rapid reinnervation of injured skin. (A) The inventor examined innervation of surgically damaged skin (biopsy) following 8 days of treatment with either GM-284 or vehicle. The skin sections were stained with an antibody that recognizes myelin basic protein (MBP). […] In contrast, healing skin which had been treated with vehicle alone still had no myelinated fibers, nor did the Langerhans cells appear to have any organization relative to the epidermis (right panel). (B) Unmyelinated fibers also innervate the skin, where the fibers extend into the epidermis. […] No such fibers were found in the vehicle-treated controls.
As shown above, GM-284 induces rapid healing of wounds; it does so, in part, by influencing the proliferation of cells within the dermis and epidermis. In addition, this compound has profound effects on the regeneration of peripheral nerves. The inventor has previously shown that, following crushing-nerve injury, GM-284 enhances nerve regeneration, acting on both the axon and the Schwann cell (data not shown). To investigate whether GM-284 also enhances sensory-nerve regeneration into skin following wounding, the inventor examined innervation of skin biopsies after 8 days of treatment with either GM-284 or vehicle. […]

peripheral nerves = assay: Peripheral nerve regeneration after mechanical transection; assay type: in vivo; conditions: mechanical transection of peripheral nerves; earlier studies of the inventor
surgical wounds = assay: Healing of surgical wounds under daily gavage (systemic treatment); assay type: in vivo, mice
From the text: During these studies, the inventor serendipitously observed that the surgical wounds of animals treated systemically with GM-284 appeared dramatically different from those of either vehicle- or FK506-treated mice. […] Given the biochemical properties of GM-284, and the clinical uses of FK506 as a topical medication, the inventor investigated the ability of GM-284 to act as a healing accelerant when applied topically to full-thickness skin biopsies in mice.
These studies required surgical exposure of the right lower quadrant of all study animals. Following exposure of the sciatic nerve from the sciatic notch to the knee, and manipulation of the nerve, the muscle and overlaying skin were closed with suture material. Each animal was subsequently treated with a daily gavage of either GM-284 (5 mg/kg), FK506 (5 mg/kg), or methylcellulose vehicle alone.

neuregulin-α = assay: Neuregulin-α expression in keratinocytes of unwounded skin in situ; assay type: in vivo
From the text: FIG. 8 illustrates that GM-284 alters neuregulin gene expression. […] As expected, unwounded, vehicle-treated keratinocytes strongly express neuregulin-α (top panel).
As expected, unwounded, vehicle-treated keratinocytes strongly expressed neuregulin-α (FIG. 8, top panel).

epidermis = assay: Epidermal thickness after full-thickness skin biopsy and topical treatment; assay type: in vivo, mice; conditions: topical daily for 8 days in DMSO-based vehicle, rebiopsy, H&E
Procedure: FIG. 4 illustrates that topical treatment with GM-284 increases epidermal thickness in vivo. Eight days after full-thickness skin biopsies and daily treatment with vehicle, FK506, or GM-284, the original biopsy sites were rebiopsied and stained with hemotoxylin and eosin.
To examine this possibility, 5-mm, full-skin thickness biopsies were taken from the hindquarters of both male and female ICR retired breeders. The wounds were treated daily, for 8 days, with topical administration of either the DMSO-based vehicle, or FK506 or GM-284 in the vehicle. Thereafter, the original biopsy site was rebiopsied. […] In contrast, the epidermis of the GM-284-treated animals was much thicker, and appeared to be much more cellular, than the epidermis of animals under the other two conditions (FIG. 4, panel c).

recombinant FKBP52 = target: T1, recombinant FKBP52 (Homo sapiens, UniProt Q02790); assay: Binding affinity for recombinant FKBP52 by solution-phase tryptophan fluorescence (QTFS); conditions: read-out: disassociation constant (kd), binding affinity for recombinant FKBP52
T1 sequence (Q02790 1-459): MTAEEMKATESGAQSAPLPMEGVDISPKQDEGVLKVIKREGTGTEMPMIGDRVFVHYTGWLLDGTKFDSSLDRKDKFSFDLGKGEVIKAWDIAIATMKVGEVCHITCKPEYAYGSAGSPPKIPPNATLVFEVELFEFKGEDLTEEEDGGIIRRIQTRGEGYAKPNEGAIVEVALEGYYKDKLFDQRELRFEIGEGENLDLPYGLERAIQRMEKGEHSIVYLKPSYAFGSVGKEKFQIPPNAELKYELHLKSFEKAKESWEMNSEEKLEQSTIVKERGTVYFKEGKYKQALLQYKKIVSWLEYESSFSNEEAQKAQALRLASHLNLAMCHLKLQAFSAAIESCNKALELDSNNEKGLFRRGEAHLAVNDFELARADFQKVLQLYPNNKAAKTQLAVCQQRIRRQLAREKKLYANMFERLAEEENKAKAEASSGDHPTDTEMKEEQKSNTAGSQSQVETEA
From the text: Accordingly, in one embodiment of the present invention, the immunophilin ligand is FK506 or an FK506 analogue or derivative. As used herein, an “FK506 derivative” is a chemical substance derived from FK506, either directly or by modification, truncation, or partial substitution. FK506 and its analogues and derivatives may be produced synthetically. The FK506 derivative for use in the present invention may be nonimmunosuppressive. In a preferred embodiment of the present invention, the nonimmunosuppressive FK506 derivative is GM-284. This novel compound is a small molecule that effects transcriptional change in Schwann cells, and promotes wound healing and regeneration of epithelial tissue and nervous tissue, as described below. […] The structure of GM-284 is depicted in FIG. 9.

5-mm skin biopsies = assay: Closure of 5-mm skin biopsy wounds under daily topical treatment; assay type: in vivo, mice
Procedure: The foregoing results also raised the possibility that GM-284 might show similar effects if administered topically, directly to the surgical site. To investigate this possibility, 10 retired breeders—5 male mice and 5 female mice—were prepared for surgery, and were subjected to 5-mm skin biopsies using a disposable biopsy punch. After achieving hemostasis, the wounds were treated immediately with topical application of either GM-284 or vehicle, or received no treatment at all. The treatment was repeated daily.
During the experimental period, the wounds were photographed daily, and the photographs were scanned for […]. The open area of each wound was quantified using an image-analysis program, NIH Image.

epidermis of intact skin = assay: Topical treatment of intact shaved skin, with recovery period; assay type: in vivo
From the text: Either GM-284 or vehicle was applied to the dorsal skin on both sides of the animals, daily for 2 weeks. At that time, a 5-mm biopsy was taken from only one side, and all treatment was withheld. After an additional 2-week recovery period, a 5-mm biopsy was taken from the contralateral, intact side. […] 20×magnification
In order to test these effects, the inventor shaved the dorsal fur from over the hindquarters, bilaterally, and tattooed ˜5-mm circles on the skin. Either GM-284 or vehicle was applied daily, to both sides of the animals, for 2 weeks. After that time, a 5-mm biopsy was taken from only one side of each animal, and all treatment was withheld. After an additional 2-week “recovery period”, a 5-mm biopsy was taken from the intact side of each animal.

[3] = tested on: human-foreskin keratinocytes; assay: Proliferation of cultured human-foreskin keratinocytes; assay type: cell-based
Procedure: Human keratinocytes were thawed, then either grown in the presence of increasing concentrations of GM-284, or grown in 5 μM FeSO4 as a positive control.
As detailed above, keratinocyte proliferation is influenced by a number of factors, including innervation (Hsieh and Lin, Modulation of keratinocyte proliferation by skin innervation. J. Invest. Dermatol., 113:579–86, 1999) and growth-factor treatment (Castagnino et al., Neu differentiation factor/heregulin induction by hepatocyte and keratinocyte growth factors. Oncogene, 19:640–48, 2000; and reviewed by Werner and Smola, Paracrine regulation of keratinocyte proliferation and differentiation. Trends Cell Biol., 11: 143–46, 2001). Thus, by culturing human-foreskin keratinocytes with increasing concentrations of GM-284, the inventor investigated the possibility that GM-284 was able to influence keratinocyte growth. […] This type of drug-dependent inhibition is consistent with the inventor's previous observation that a higher concentration of GM-284 blocks gene expression that is induced at a lower drug concentration (data not shown).

SMILES: CCC(C)(C)C(=O)C(=O)N1CCC[C@H]1c1nnc([C@@H]2CCCN2C(=O)C(=O)C(C)(C)CC)o1 [GM-284]
- restoration of whisker movement (facial nerve): more rapidly restore whisker movement compared to control
- number of hair follicles or sebaceous glands ([1]; 1 μM solution): no net increase in the number of hair follicles
- hair follicle size and cellularity (FIG. 5A) ([1]; 1 μM solution, versus vehicle): large increase in the width and cellularity of the basal aspects of the hair follicles; also recorded: overall increase in hair-follicle size
- sebaceous gland size and cell number (FIG. 5A) ([1]; 1 μM solution, versus vehicle): much rounder, larger, and fuller than those of the controls; also recorded: increase in the size of sebaceous glands
- sebaceous cell volume, binned by 3000-voxel increments (FIG. 5B) ([1]; >300 cells per group, versus vehicle): marked shift to the right; also recorded: absence of cells smaller than 3000 voxels
- regeneration of myelinated (MBP-positive) fibers in injured skin (FIG. 6A) [2]: regained its pre-injury histology, with new, myelinated fibers running parallel to the epidermis
- regeneration of unmyelinated fibers into the epidermis (FIG. 6B) [2]: promotes regeneration of naked axons into the epidermis
- axonal regeneration and myelination after nerve transection (peripheral nerves): enhances axonal regeneration and induces hypermyelination
- appearance and closure of surgical wounds (surgical wounds; daily gavage 5 mg/kg, skin and muscle entered, blinded observer): less erythemia and more rapid closure
- rate of wound healing versus controls (surgical wounds; mice treated systemically, controls vehicle or FK506): healed at approximately twice the rate as the controls
- healing of surgical wounds, only the skin entered (surgical wounds; muscle and overlying fascia left intact): same improved healing characteristics
- keratinocyte neuregulin-α expression (FIG. 8) (neuregulin-α; 2 weeks of topical treatment, unwounded skin): completely downregulated neuregulin-α expression
- keratinocyte neuregulin-α expression after recovery (neuregulin-α; skin allowed to recover for 2 weeks, data not shown): keratinocyte expression of neuregulin-α was restored
- epidermal thickness versus vehicle (FIG. 4) (epidermis): marked increase in epidermal thickness; also recorded: much thicker
- Kd (recombinant FKBP52): 139 nM
- granulation of wound edges (5-mm skin biopsies; topical daily, D3 and D9): better granulated than the controls
- closure rate, open wound area by NIH Image (FIG. 2) (5-mm skin biopsies; topical daily, day 5): large difference in the closure rates
- open wound size versus control groups, NIH Image (FIG. 2) (5-mm skin biopsies; topical daily, day 9): approximately one-third the size of those of the control groups
- open wound size versus control groups, NIH Image (FIG. 2) (5-mm skin biopsies; topical daily, day 9, listed as GM284): approximately as completely healed as that of the two control groups
- rate of wound closure, open wound area by NIH Image (5-mm skin biopsies; topical daily, third treatment day): closed approximately twice as fast as the control groups
- wound closure versus control groups (FIG. 1) (5-mm skin biopsies; topical, once daily, day 3): showed improvement by 3 days; also recorded: significantly more closed than the control groups
- wound closure (FIG. 1) (5-mm skin biopsies; topical, once daily, day 9): virtually closed by the ninth day
- epidermal hypertrophy after recovery period (FIG. 7, lower) (epidermis of intact skin; 2 weeks treatment, then 2 weeks without treatment): completely reversed
- epidermal thickness of intact skin (FIG. 7, top) (epidermis of intact skin; topical daily for 2 weeks): resulted in epidermal hypertrophy
- increase in rate of keratinocyte proliferation ([3]; 1 μM, after 14 days of treatment): more than 150%
- proliferative index of keratinocytes (FIG. 3) ([3]; 1 μM, after first passage and reseeding): doubling of the proliferative index
- keratinocyte growth rate at 10 μM compared with 1 μM ([3]; 10 μM): completely ablated the pro-proliferative activity
